The test system of the experiment is SW480. The experiment can be described thus: drug sensitivity score (DSS, integrated dose-response area); higher = more sensitive (stronger viability reduction); extreme values may be limits of the assay. The procedure, abridged: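 SW480 cells stably carrying doxycycline-inducible control or SND1-targeting shRNA were induced with 0.1 µg/mL doxycycline for 7 days. They were then plated at 1000 cells per well in 384-well plates holding 525 commercially available small-molecule inhibitors at five concentrations. Viability was read with CellTiter-Glo after 72 h. The drug sensitivity score integrates the area under a fitted non-linear dose–response model.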

Setting [1] is: shRNA: SND1 shRNA1 (SND1 silenced).
Setting [2] is: shRNA: SND1 shRNA2 (SND1 silenced).
The mark [3] stands for this setting: shRNA: control shRNA (non-targeting).

As for `CC[C@@H]1C(=O)N(C)c2cnc(Nc3ccc(C(=O)N[C@H]4CC[C@H](N5CCN(CC6CC6)CC5)CC4)cc3OC)nc2N1C(C)C` [Volasertib], the drug sensitivity score under setting [1] is 13.1 DSS, the drug sensitivity score under setting [2] came to 14.4 DSS and the drug sensitivity score under setting [3] came out at 14.8 DSS.
`COc1cccc2c1c(O)c(C(=O)N(C)c1ccc(C(F)(F)F)cc1)c(=O)n2C` [Tasquinimod]: the drug sensitivity score runs as follows: under setting [1], 3.7 DSS; under setting [2], 0 DSS; under setting [3], 2.3 DSS.
`CNC(=O)c1cccc(-c2ccc3c(N4CCOC[C@@H]4C)nc(N4CCOC[C@@H]4C)nc3n2)c1` [AZD2014] showed a drug sensitivity score under setting [1] of 13.2 DSS, a drug sensitivity score under setting [2] of 12.6 DSS and a drug sensitivity score under setting [3] of 9.6 DSS.
As to `O=C(Nc1ccc(-c2ccnc(Nc3ccc(N4CCOCC4)cc3)n2)cc1)C1CCCN1` (configuration not stated) [XL019], the drug sensitivity score by setting is: under setting [1], 0.1 DSS; under setting [3], 1.7 DSS.
As for `CC(C)n1nc(-c2ccc3oc(N)nc3c2)c2c(N)ncnc21` [MLN-0128], the drug sensitivity score is, setting by setting: under setting [1], 14 DSS; under setting [2], 12.3 DSS; under setting [3], 9.8 DSS.
Regarding `CCCc1cc(C)[nH]c(=O)c1CNC(=O)c1cc(-c2ccnc(N3CCN(C)CC3)c2)cc2c1cnn2C(C)C` [GSK343], the drug sensitivity score under setting [1] amounted to 0 DSS, the drug sensitivity score under setting [2] was 0 DSS and the drug sensitivity score under setting [3] was found to be 4.5 DSS.
On to `CS(=O)(=O)OCCCCOS(C)(=O)=O` [Busulfan], for which the drug sensitivity score worked out at 0 DSS under setting [1], 1.4 DSS under setting [2] and 1.5 DSS under setting [3].
With `CCC(C)(C)C(=O)O[C@H]1C[C@@H](C)C=C2C=C[C@H](C)[C@H](CC[C@@H]3C[C@@H](O)CC(=O)O3)[C@H]21` [Simvastatin], the drug sensitivity score came to 1.2 DSS under setting [1] and 4.5 DSS under setting [3].
Consider `CNC(=O)c1cc(Oc2ccc(NC(=O)Nc3ccc(Cl)c(C(F)(F)F)c3)c(F)c2)ccn1` [Regorafenib], for which the drug sensitivity score is, setting by setting: under setting [1], 7.8 DSS; under setting [2], 7.9 DSS; under setting [3], 5.1 DSS.
For `COc1ccc(CCc2nc3cc(-c4c(C)noc4C)ccc3n2C[C@H](C)N2CCOCC2)cc1Cl` [SGC-CBP30] the same measures were 0.8 DSS, 2.1 DSS and 2.3 DSS.
`N#CC1(c2ccc(NC(=O)c3cccnc3NCc3ccncc3)cc2)CCCC1` [Apatinib] gave a drug sensitivity score under setting [1] of 0 DSS, a drug sensitivity score under setting [2] of 0 DSS and a drug sensitivity score under setting [3] of 0 DSS.
`Cc1[nH]c2ccccc2c1CCNCc1ccc(/C=C/C(=O)NO)cc1` [Panobinostat]: the drug sensitivity score under setting [1] worked out at 19.9 DSS, the drug sensitivity score under setting [2] came to 19.2 DSS and the drug sensitivity score under setting [3] came out at 17.4 DSS.
Consider `CCc1cc2c(cc1N1CCC(N3CCOCC3)CC1)C(C)(C)c1[nH]c3cc(C#N)ccc3c1C2=O` [Alectinib], for which the drug sensitivity score came to 0 DSS under setting [1], 0 DSS under setting [2] and 0 DSS under setting [3].
For `CNC(=O)CN1CCC(Oc2cc3c(Nc4cccc(Cl)c4F)ncnc3cc2OC)CC1` [Sapitinib], the drug sensitivity score runs as follows: under setting [1], 0.1 DSS; under setting [2], 5 DSS; under setting [3], 0 DSS.
As to `COc1cc(CCc2cc(NC(=O)c3ccc(N4CC(C)NC(C)C4)cc3)n[nH]2)cc(OC)c1` (configuration not stated) [AZD4547], the drug sensitivity score reads like this: under setting [1], 2.9 DSS; under setting [2], 0 DSS; under setting [3], 1.6 DSS.
Take `Cc1cccc(-c2nn3c(c2-c2ccnc4ccc(C(N)=O)cc24)CCC3)n1` [Galunisertib]: the drug sensitivity score runs as follows: under setting [1], 0 DSS; under setting [2], 0 DSS; under setting [3], 0 DSS.
With `Cn1cnc2c(F)c(Nc3ccc(Br)cc3Cl)c(C(=O)NOCCO)cc21` [Selumetinib], the drug sensitivity score by setting is: under setting [1], 19.1 DSS; under setting [2], 8.9 DSS; under setting [3], 4.7 DSS.
The matching figures for `O=c1sn(-c2cccc3ccccc23)c(=O)n1Cc1ccccc1` [Tideglusib]: 0.1 DSS, 1.2 DSS and 0.1 DSS.
`O=C(Nc1cccc(Cl)c1)Nc1ncc(CCNc2ncnc3ccsc23)s1` [SNS-314]: the drug sensitivity score runs as follows: under setting [1], 4.8 DSS; under setting [2], 4.3 DSS; under setting [3], 5.6 DSS.
Consider `Nc1nc(NC2CC2)cc(-c2cccc(Cl)c2Cl)n1` [TH588], for which the drug sensitivity score runs as follows: under setting [1], 6.2 DSS; under setting [3], 6.3 DSS.
`Cc1nc(NC(=O)N2CCC[C@H]2C(N)=O)sc1-c1ccnc(C(C)(C)C(F)(F)F)c1` [Alpelisib]: the drug sensitivity score by setting is: under setting [1], 2.8 DSS; under setting [2], 5.2 DSS; under setting [3], 4.3 DSS.
The matching figures for `Cc1ncc(Cl)cc1NCc1ccc(C(=O)N[C@@H](CC2CCCC2)C(=O)NC2CC2)s1`: 0 DSS, 0 DSS and 0.3 DSS.
In turn, `CN1CCN(C2CCN(C(=O)Nc3cc(Oc4ccc(NC(=O)C5(C(=O)Nc6ccc(F)cc6)CC5)c(F)c4)ccn3)CC2)CC1` [Golvatinib] displayed a drug sensitivity score under setting [1] of 0 DSS, a drug sensitivity score under setting [2] of 2.2 DSS and a drug sensitivity score under setting [3] of 0 DSS.
As to `CCN1CCN(Cc2ccc(-c3cc4c(N[C@H](C)c5ccccc5)ncnc4[nH]3)cc2)CC1` [NVP-AEE788], the drug sensitivity score was found to be 1.5 DSS under setting [1], 1.3 DSS under setting [2] and 2.8 DSS under setting [3].
As to `CC/C(=C(\c1ccccc1)c1ccc(OCCN(C)C)cc1)c1ccccc1` [Tamoxifen], the drug sensitivity score is 5 DSS under setting [1], 4.4 DSS under setting [2] and 5.9 DSS under setting [3].
For `CC1CCC(n2c3cnccc3c3cnc(Nc4ccc5c(n4)CCN(C(=O)CO)C5)nc32)CC1` (configuration not stated) [AMG-925], the drug sensitivity score is, setting by setting: under setting [1], 1.1 DSS; under setting [2], 0 DSS; under setting [3], 0 DSS.
Molecule `O=C(Nc1cccc(C(F)(F)F)c1)Nc1cc(S(=O)(=O)NC2CC2)ccc1-c1ccsc1` [AGI-6780] registered a drug sensitivity score under setting [1] of 0.2 DSS and a drug sensitivity score under setting [3] of 0.5 DSS.
On to `O=C(c1cc(Cc2n[nH]c(=O)c3ccccc23)ccc1F)N1CCN(C(=O)C2CC2)CC1` [Olaparib], for which the drug sensitivity score is, setting by setting: under setting [1], 2.7 DSS; under setting [2], 0 DSS; under setting [3], 0 DSS.
Consider `CC(C)(C)C[C@@H]1N[C@@H](C(=O)N[C@H]2CC[C@H](O)CC2)[C@H](c2cccc(Cl)c2F)[C@]12C(=O)Nc1cc(Cl)ccc12`, for which the drug sensitivity score worked out at 1.3 DSS under setting [1], 1.9 DSS under setting [2] and 3.3 DSS under setting [3].
As to `CCOc1cc2ncc(C#N)c(Nc3ccc(F)c(Cl)c3)c2cc1NC(=O)/C=C/CN(C)C` [Pelitinib], the drug sensitivity score runs as follows: under setting [1], 7.8 DSS; under setting [2], 8.6 DSS; under setting [3], 12.3 DSS.
Take `COc1ccc(-c2ccc3c(N4CCOC[C@@H]4C)nc(N4CCOC[C@@H]4C)nc3n2)cc1CO` [AZD8055]: the drug sensitivity score is, setting by setting: under setting [1], 20.6 DSS; under setting [2], 19.2 DSS; under setting [3], 14.9 DSS.
The matching figures for `CC(C)(C#N)c1cc(Cn2cncn2)cc(C(C)(C)C#N)c1` [Anastrozole]: 0 DSS, 0 DSS and 0 DSS.

Source of the values: the supplement of paper PMC9265050, “Inhibition of RNA Binding in SND1 Increases the Levels of miR-1-3p and Sensitizes Cancer Cells to Navitoclax” (Cancers, 2022).
